Patent US8178534B2, “cMET inhibitors” (Takeda Pharmaceutical Company Limited, priority 2008, dated 2012)

Assays:
[1] = tested on: MKN45; assay: Inhibition of cell viability (MTS), MKN45; format: cell-based; conditions: Homo sapiens, MKN-45, 96 h, MKN45 cells, 96 hours incubation
Method in brief: (§1)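 Cells seeded at 2,000-7,500/well, attached ~24 h, then treated in duplicate with 1:2.5 serial dilutions at 0.5% final DMSO. Viability by MTS; EC50 from non-linear fit after background correction and normalisation to DMSO. MKN45 and EBC1 are cMET-dependent; A549 serves as negative control.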

[2] = target: T1, cMET enzyme (amino acids 1023-1360) (Homo sapiens, UniProt P08581); assay: Determination of inhibition of cMET (capillary electrophoresis, phosphorylated peptide product); format: biochemical; conditions: 1.2 nM cMET, 50 μM ATP, 2 μM FL-2 peptide, 2 hours room temperature
T1 construct: The cMET enzyme (amino acids 1023-1360) nominally at 24 μM was held at −80° C. until use; His tag (N, cleaved yes); made in house; host or cells: Sf9 cells
T1 sequence (P08581 1023-1360): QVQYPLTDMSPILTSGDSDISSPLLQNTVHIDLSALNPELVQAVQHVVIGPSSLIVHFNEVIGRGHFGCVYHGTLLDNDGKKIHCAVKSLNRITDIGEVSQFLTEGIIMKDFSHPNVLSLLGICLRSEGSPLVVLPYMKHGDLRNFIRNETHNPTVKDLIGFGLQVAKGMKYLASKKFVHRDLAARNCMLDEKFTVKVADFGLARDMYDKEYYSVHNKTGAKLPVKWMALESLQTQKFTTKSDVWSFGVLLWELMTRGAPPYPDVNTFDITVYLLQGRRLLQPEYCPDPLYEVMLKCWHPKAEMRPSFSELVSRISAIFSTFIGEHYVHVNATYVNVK

[3] = tested on: A549; assay: Inhibition of cell viability (MTS), A549 (negative control line); format: cell-based; conditions: Homo sapiens, A549, 96 h, A549 cells (negative control), 96 hours incubation
Method in brief: as §1

[4] = tested on: EBC1; assay: Inhibition of cell viability (MTS), EBC1; format: cell-based; conditions: Homo sapiens, EBC-1, 96 h, EBC1 cells, 96 hours incubation
Method in brief: as §1

EC50 [1] [nM] | IC50 [2] [nM] | EC50 [3] [nM] | SMILES | EC50 [4] [nM]
< 30 | < 30 | 5000 to 8000 | Cc1csc(-c2ccc3nnc(C(C)c4ccc5nc(NC(=O)C6CC6)cn5n4)n3c2)c1 (centres unmarked) [Compound 62, N-(6-(1-(6-(4-methylthiophen-2-yl)-[1,2,4]triazolo[4,3-a]pyridin-3-yl)ethyl)imidazo[1,2-b]pyridazin-2-yl)cyclopropanecarboxamide] | < 30
100 to 249 | < 30 | > 50000 | CC(c1ccc2nc(NC(=O)C3CC3)cn2n1)c1nnc2ccc(-c3cn[nH]c3)cn12 (centres unmarked) [Compound 64, N-(6-(1-(6-(1H-pyrazol-4-yl)-[1,2,4]triazolo[4,3-a]pyridin-3-yl)ethyl)imidazo[1,2-b]pyridazin-2-yl)cyclopropanecarboxamide] | 100 to 249
< 30 | < 30 | > 50000 | CC(c1ccc2nc(NC(=O)C3CC3)cn2n1)c1nnc2ccc(-c3cccc(F)c3)cn12 (centres unmarked) [Compound 65, N-(6-(1-(6-(3-fluorophenyl)-[1,2,4]triazolo[4,3-a]pyridin-3-yl)ethyl)imidazo[1,2-b]pyridazin-2-yl)cyclopropanecarboxamide] | < 30
100 to 249 | < 30 | > 50000 | CC(c1ccc2nc(NC(=O)C3CC3)cn2n1)c1nnc2ccc(-c3cccc(C(N)=O)c3)cn12 (centres unmarked) [Compound 66, 3-(3-(1-(2-(cyclopropanecarboxamido)imidazo[1,2-b]pyridazin-6-yl)ethyl)-[1,2,4]triazolo[4,3-a]pyridin-6-yl)benzamide] | 100 to 249
100 to 249 | < 30 | > 50000 | CC(c1ccc2nc(NC(=O)C3CC3)cn2n1)c1nnc2ccc(-c3ccc(C(N)=O)cc3)cn12 (centres unmarked) [Compound 67, 4-(3-(1-(2-(cyclopropanecarboxamido)imidazo[1,2-b]pyridazin-6-yl)ethyl)-[1,2,4]triazolo[4,3-a]pyridin-6-yl)benzamide] | 60 to 100
30 to 59 | < 30 | > 50000 | CNC(=O)c1ccc(-c2ccc3nnc(C(C)c4ccc5nc(NC(=O)C6CC6)cn5n4)n3c2)cc1 (centres unmarked) [Compound 68, 4-(3-(1-(2-(cyclopropanecarboxamido)imidazo[1,2-b]pyridazin-6-yl)ethyl)-[1,2,4]triazolo[4,3-a]pyridin-6-yl)-N-methylbenzamide] | 30 to 59
< 30 | < 30 | > 50000 | CCOc1ccc(-c2ccc3nnc(C(C)c4ccc5nc(NC(=O)C6CC6)cn5n4)n3c2)cc1 (centres unmarked) [Compound 69, N-(6-(1-(6-(4-ethoxyphenyl)-[1,2,4]triazolo[4,3-a]pyridin-3-yl)ethyl)imidazo[1,2-b]pyridazin-2-yl)cyclopropanecarboxamide] | < 30
< 30 | < 30 | > 50000 | COc1ccc(-c2ccc3nnc(C(C)c4ccc5nc(NC(=O)C6CC6)cn5n4)n3c2)cc1C (centres unmarked) [Compound 70, N-(6-(1-(6-(4-methoxy-3-methylphenyl)-[1,2,4]triazolo[4,3-a]pyridin-3-yl)ethyl)imidazo[1,2-b]pyridazin-2-yl)cyclopropanecarboxamide] | < 30
< 30 | < 30 | > 50000 | CC(c1ccc2nc(NC(=O)C3CC3)cn2n1)c1nnc2ccc(-c3ccc(C#N)c(F)c3)cn12 (centres unmarked) [Compound 72, N-(6-(1-(6-(4-cyano-3-fluorophenyl)-[1,2,4]triazolo[4,3-a]pyridin-3-yl)ethyl)imidazo[1,2-b]pyridazin-2-yl)cyclopropanecarboxamide] | < 30
< 30 | < 30 | 8000 to 25000 | CC(c1ccc2nc(NC(=O)C3CC3)cn2n1)c1nnc2ccc(-c3cccc(N(C)C)c3)cn12 (centres unmarked) [Compound 73, N-(6-(1-(6-(3-(dimethylamino)phenyl)-[1,2,4]triazolo[4,3-a]pyridin-3-yl)ethyl)imidazo[1,2-b]pyridazin-2-yl)cyclopropanecarboxamide] | < 30
< 30 | < 30 | > 50000 | COc1cccc(-c2ccc3nnc(C(F)(F)c4ccc5nc(NC(=O)C6CC6)cn5n4)n3c2)c1 [Compound 76, N-(6-(difluoro(6-(3-methoxyphenyl)-[1,2,4]triazolo[4,3-a]pyridin-3-yl)methyl)imidazo[1,2-b]pyridazin-2-yl)cyclopropanecarboxamide] | < 30
< 30 | 30 to 59 | > 50000 | O=C(Nc1cn2nc(C(F)(F)c3nnc4ccc(-c5cccnc5)cn34)ccc2n1)C1CC1 [Compound 78, N-(6-(difluoro(6-(pyridin-3-yl)-[1,2,4]triazolo[4,3-a]pyridin-3-yl)methyl)imidazo[1,2-b]pyridazin-2-yl)cyclopropanecarboxamide] | < 30
< 30 | < 30 | > 50000 | O=C(Nc1cn2nc(C(F)(F)c3nnc4ccc(-c5cc(F)cc(F)c5)cn34)ccc2n1)C1CC1 [Compound 81, N-(6-((6-(3,5-difluorophenyl)-[1,2,4]triazolo[4,3-a]pyridin-3-yl)difluoromethyl)imidazo[1,2-b]pyridazin-2-yl)cyclopropanecarboxamide] | < 30

The remaining lines, values behind:

SMILES | EC50 [1] [nM] | IC50 [2] [nM] | EC50 [3] [nM] | EC50 [4] [nM]
CC(c1ccc2nc(NC(=O)C3CC3)cn2n1)c1nnc2ccc(-c3cccc(S(C)(=O)=O)c3)cn12 (centres unmarked) [Compound 59, N-(6-(1-(6-(3-(methylsulfonyl)phenyl)-[1,2,4]triazolo[4,3-a]pyridin-3-yl)ethyl)imidazo[1,2-b]pyridazin-2-yl)cyclopropanecarboxamide] | 100 to 249 | < 30 | > 50000 | 60 to 100
CC(c1ccc2nc(NC(=O)C3CC3)cn2n1)c1nnc2ccc(-c3ccc(S(C)(=O)=O)cc3)cn12 (centres unmarked) [Compound 60, N-(6-(1-(6-(4-(methylsulfonyl)phenyl)-[1,2,4]triazolo[4,3-a]pyridin-3-yl)ethyl)imidazo[1,2-b]pyridazin-2-yl)cyclopropanecarboxamide] | 60 to 100 | < 30 | > 50000 | 60 to 100
COc1cccc(-c2ccc3nnc(C(C)c4ccc5nc(NC(=O)C6CC6)cn5n4)n3c2)c1 (centres unmarked) [Compound 61, N-(6-(1-(6-(3-methoxyphenyl)-[1,2,4]triazolo[4,3-a]pyridin-3-yl)ethyl)imidazo[1,2-b]pyridazin-2-yl)cyclopropanecarboxamide] | < 30 | < 30 | > 50000 | < 30
CC(c1ccc2nc(NC(=O)C3CC3)cn2n1)c1nnc2ccc(-c3ccc(C#N)cc3)cn12 (centres unmarked) [Compound 63, N-(6-(1-(6-(4-cyanophenyl)-[1,2,4]triazolo[4,3-a]pyridin-3-yl)ethyl)imidazo[1,2-b]pyridazin-2-yl)cyclopropanecarboxamide] | < 30 | < 30 | > 50000 | < 30
CC(c1ccc2nc(NC(=O)C3CC3)cn2n1)c1nnc2ccc(-c3ccc(F)c(C#N)c3)cn12 (centres unmarked) [Compound 71, N-(6-(1-(6-(3-cyano-4-fluorophenyl)-[1,2,4]triazolo[4,3-a]pyridin-3-yl)ethyl)imidazo[1,2-b]pyridazin-2-yl)cyclopropanecarboxamide] | < 30 | < 30 | > 50000 | < 30
O=C(Nc1cn2nc(C(F)(F)c3nnc4ccc(-c5ccc(F)cc5)cn34)ccc2n1)C1CC1 [Compound 74, N-(6-(difluoro(6-(4-fluorophenyl)-[1,2,4]triazolo[4,3-a]pyridin-3-yl)methyl)imidazo[1,2-b]pyridazin-2-yl)cyclopropanecarboxamide] | < 30 | < 30 | 8000 to 25000 | < 30
COc1ccc(-c2ccc3nnc(C(F)(F)c4ccc5nc(NC(=O)C6CC6)cn5n4)n3c2)cc1 [Compound 75, N-(6-(difluoro(6-(4-methoxyphenyl)-[1,2,4]triazolo[4,3-a]pyridin-3-yl)methyl)imidazo[1,2-b]pyridazin-2-yl)cyclopropanecarboxamide] | < 30 | < 30 | 8000 to 25000 | < 30
O=C(Nc1cn2nc(C(F)(F)c3nnc4ccc(-c5cccc(F)c5)cn34)ccc2n1)C1CC1 [Compound 77, N-(6-(difluoro(6-(3-fluorophenyl)-[1,2,4]triazolo[4,3-a]pyridin-3-yl)methyl)imidazo[1,2-b]pyridazin-2-yl)cyclopropanecarboxamide] | < 30 | < 30 | > 50000 | < 30
O=C(Nc1cn2nc(C(F)(F)c3nnc4ccc(-c5ccncc5)cn34)ccc2n1)C1CC1 [Compound 79, N-(6-(difluoro(6-(pyridin-4-yl)-[1,2,4]triazolo[4,3-a]pyridin-3-yl)methyl)imidazo[1,2-b]pyridazin-2-yl)cyclopropanecarboxamide] | < 30 | 60 to 100 | > 50000 | < 30
CC(C)c1ccc(-c2ccc3nnc(C(F)(F)c4ccc5nc(NC(=O)C6CC6)cn5n4)n3c2)cc1 [Compound 80, N-(6-(difluoro(6-(4-isopropylphenyl)-[1,2,4]triazolo[4,3-a]pyridin-3-yl)methyl)imidazo[1,2-b]pyridazin-2-yl)cyclopropanecarboxamide] | < 30 | 30 to 59 | > 50000 | 30 to 59
